The values that follow come from US20110268789A1, “USE OF PITUITARY ADENYLATE CYCLASE-ACTIVATING POLYPEPTIDE (PACAP) AND PACAP ANALOGS AS ADJUNCTIVE TREATMENTS WITH ANTICANCER AGENTS” (priority 2008, published 2011).

In one test the test system is Male C57BL/6 mice. The test can be described thus: Cisplatin-induced nephrotoxicity in mice. The format is in vivo, mouse. The conditions noted are these: cisplatin 20 mg/kg i.p., FIG. 10. The method, then:
(§1) Male C57BL/6 mice were given a single intraperitoneal injection of 20 mg/kg of cisplatin. Twenty nanomoles of PACAP38 were given intraperitoneally 1 hour before the injection of cisplatin and additional doses were given at 24 and 48 hours after the initial dose. The control group of mice was injected intraperitoneally with the same volume of saline as for the injections of cisplatin and PACAP38 on the same schedule. The mice were euthanized 24 hours after the final injection of PACAP38. Each value represents the mean plus/minus the standard error of four determinations. ***p<0.001 and **p<0.01 compared to the group treated only with cisplatin.
as §1, with “PACAP38. TNF-α was extracted from one kidney of each mouse and quantified with an enzyme-linked immunosorbent assay.” for “PACAP38.”
Male C57BL/6 mice were given a single intraperitoneal injection of 20 mg/kg of cisplatin. Twenty nanomoles of PACAP38 were given intraperitoneally 1 hour before the injection of cisplatin and additional doses were given at 24 and 48 hours after the initial dose. The control group of mice were injected intraperitoneally with the same volume of saline as for the injections of cisplatin and PACAP38 on the same schedule. The mice were euthanized 24 hours after the final injection of PACAP38, and the kidneys were removed and fixed in 10% formalin. The fixed sections were stained with hematoxylin and eosin. The sections of the kidneys from control mice show intact renal tubular epithelial cells and well-preserved brush border membranes. The kidneys from mice treated with cisplatin had extensive tubular damage, tubular dilations, intratubular debris, and intratubular casts. […] Tubular damage was more pronounced in the outer cortex in the cisplatin treated mice. The photomicrographs on the left side were made at a lower magnification (×160) than the photomicrographs on the right side (×320). The results described in FIGS. 5, 6, 7, and 8 were from the same experiment.
as §1, with “six” for “four”
as §1, with “The cytoprotective effect of PACAP38 against cisplatin-induced nephrotoxicity was also seen in a common in vivo model. Male” for “Male”, “PACAP38.” for “PACAP38. Each value represents the mean plus/minus the standard error of four determinations. ***p<0.001 and **p<0.01 compared to the group treated only with cisplatin.”

In a further test the target is T1, PAC1 receptor (Homo sapiens, UniProt P41586).
T1 sequence (P41586 21-468): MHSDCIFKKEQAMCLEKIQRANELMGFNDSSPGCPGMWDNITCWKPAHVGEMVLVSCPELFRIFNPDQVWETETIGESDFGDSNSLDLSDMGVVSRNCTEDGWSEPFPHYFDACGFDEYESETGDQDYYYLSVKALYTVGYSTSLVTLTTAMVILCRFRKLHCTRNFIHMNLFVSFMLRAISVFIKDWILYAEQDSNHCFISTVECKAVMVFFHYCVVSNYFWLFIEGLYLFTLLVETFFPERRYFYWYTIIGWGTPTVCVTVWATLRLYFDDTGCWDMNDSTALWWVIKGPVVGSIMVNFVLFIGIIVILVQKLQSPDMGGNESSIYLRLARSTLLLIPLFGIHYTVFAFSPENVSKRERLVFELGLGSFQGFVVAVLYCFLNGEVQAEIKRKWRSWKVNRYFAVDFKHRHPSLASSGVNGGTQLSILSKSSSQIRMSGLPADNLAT
The conditions noted are these: cited from earlier work.

Test [1] concerns human erythroleukemia cells. The test can be described thus: Thalidomide-induced apoptotic cell death of erythroleukemia cells. The format is cell-based. The conditions noted are these: thalidomide 48 hours, FIG. 20. As to the method: The human myeloid leukemia cells were cultured in RPMI 1640 medium supplemented with 10% non-inactivated fetal bovine serum. The effects of PACAP38, [D-Ser^2]PACAP38 and VIP on apoptotic cell death was assessed by the quantitative determination of cytoplasmic histone-associated DNA-fragmentation (mono- and oligonucleosomes) after exposure to thalidomide for 48 hours. Each value represents the mean plus/minus the standard deviation of four determinations. **p<0.01 and *p<0.05 compared to the thalidomide-treated (control) cells.

As for VIP, the “relative potency as cytoprotectants against cisplatin-induced impairment of kidney function (serum creatinine)” value with Male C57BL/6 mice is reported as “less potent”. Further, in the test with PAC1 receptor, the “affinity for the PAC1 receptor relative to PACAP” value is on record as 1,000 times less. The “effect on thalidomide-induced apoptotic cell death” value in test [1] was “dose-dependent enhancement”.
